Experimental data from patent publication US9505781B2, “Compositions comprising thienopyrimidine and thienopyridine compounds and methods of use thereof” (The Regents of the University of Michigan, priority 2013, dated 2016).

Biological target: T1, menin-MLL interaction (Homo sapiens, UniProt O00255)
T1 sequence (O00255 1-610): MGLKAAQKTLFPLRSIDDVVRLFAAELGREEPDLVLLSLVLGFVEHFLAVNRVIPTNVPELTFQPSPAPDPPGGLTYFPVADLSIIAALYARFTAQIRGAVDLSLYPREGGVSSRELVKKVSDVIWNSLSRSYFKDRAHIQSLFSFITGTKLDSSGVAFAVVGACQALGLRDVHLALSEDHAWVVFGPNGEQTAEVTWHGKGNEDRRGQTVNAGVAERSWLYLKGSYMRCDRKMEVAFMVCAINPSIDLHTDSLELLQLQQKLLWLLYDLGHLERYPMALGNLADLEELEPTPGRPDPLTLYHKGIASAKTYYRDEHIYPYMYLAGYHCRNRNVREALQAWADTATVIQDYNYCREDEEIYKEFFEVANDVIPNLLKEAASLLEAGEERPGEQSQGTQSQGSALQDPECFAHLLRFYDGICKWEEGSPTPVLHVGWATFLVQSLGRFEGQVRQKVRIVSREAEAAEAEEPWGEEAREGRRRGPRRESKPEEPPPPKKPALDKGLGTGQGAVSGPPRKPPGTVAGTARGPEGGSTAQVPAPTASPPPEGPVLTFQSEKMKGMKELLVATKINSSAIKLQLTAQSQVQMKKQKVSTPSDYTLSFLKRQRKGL
Experiment: biochemical
Excerpt: Compounds that inhibit the interaction decrease the fluorescence anisotropy which is being used as a read-out for compound screening and for IC50 determination.

Compound: N#Cc1cc2cc(CN3CCC(Nc4ncnc5sc(CC(F)(F)F)cc45)CC3)cc(F)c2[nH]1 [Compound 245]
- IC50: 100 to 500 nM

Compound: N#Cc1cc2cc(CN3CCC(Nc4ncnc5sc(CC(F)(F)F)cc45)CC3)ccc2n1CS(N)(=O)=O [Compound 210]
- IC50: < 100 nM

Compound: O=C(Cc1ccc(Cl)cc1)N1CCN(c2ncnc3sc(CC(F)(F)F)cc23)CC1 [Compound 71]
- IC50: 100 to 500 nM

Compound: Cc1c(CN2CCC(Nc3ncnc4sc(CC(F)(F)F)cc34)CC2)ccc2c1cc(C#N)n2CCN1CCNC(C)C1 (stereo not shown) [Compound 369]
- IC50: < 100 nM

Compound: CC(=O)NCCS(=O)(=O)Nc1ccc(CC(=O)N2CCN(c3ncnc4sc(CC(F)(F)F)cc34)CC2)cc1 [Compound 57]
- IC50: < 100 nM

Compound: CN(c1ccc(CC(=O)N2CCN(C3=NC=NC4SC(CC(F)(F)F)=CC34)CC2)c(Cl)c1)S(C)(=O)=O (stereo not shown) [Compound 65]
- IC50: < 100 nM

Compound: CN(c1ccc(CC(=O)N2CCN(c3ncnc4sc(CC(F)(F)F)cc34)CC2)cc1)S(C)(=O)=O [Compound 46]
- IC50: < 100 nM

Compound: Cc1nnc(Cn2c(C#N)cc3c(C)c(CN4CCC(Nc5ncnc6sc(CC(F)(F)F)cc56)CC4)ccc32)o1 [Compound 334]
- IC50: < 100 nM

Compound: NS(=O)(=O)Cc1cccc(CC(=O)N2CCN(c3ncnc4sc(CC(F)(F)F)cc34)CC2)c1 [Compound 96]
- IC50: 500 to 2000 nM

Compound: O=C(Cc1ccc(NS(=O)(=O)CC(F)(F)F)cc1Cl)N1CCN(C2=NC=NC3SC(CC(F)(F)F)=CC23)CC1 (stereo not shown) [Compound 287]
- IC50: 500 to 2000 nM

Compound: CC(C)c1cc2c(N3CCN(c4nnc(C(F)(F)F)s4)CC3)ncnc2s1 [Compound 32]
- IC50: 500 to 2000 nM

Compound: FC(F)(F)Cc1cc2c(N3CCN(CC4CCCCC4)CC3)ncnc2s1 [Compound 9]
- IC50: 100 to 500 nM

Compound: Cc1c(CN2CCC(Nc3ncnc4sc(CC(F)(F)F)cc34)CC2)ccc2c1cc(C#N)n2CCN1CCN(C(C)C)CC1 [Compound 357]
- IC50: < 100 nM

Compound: CCc1ccc(CN2CCC(Nc3ncnc4sc(CC(F)(F)F)cc34)CC2)cc1 [Compound 118]
- IC50: 100 to 500 nM

Compound: N#Cc1cc2cc(CN3CCC(Nc4ncnc5sc(CC(F)(F)F)cc45)C(N)C3)ccc2[nH]1 (stereo not shown) [Compound 160]
- IC50: < 100 nM

Compound: OCc1ccccc1CN1CCC(Nc2ncnc3sc(CC(F)(F)F)cc23)CC1 [Compound 110]
- IC50: 100 to 500 nM

Compound: N#Cc1ccc(CN2CCC(CNc3ncnc4sc(CC(F)(F)F)cc34)CC2)cc1 [Compound 263]
- IC50: 100 to 500 nM

Compound: O=C(N1CCCC1)N1CCN(c2ncnc3sc(CC(F)(F)F)cc23)CC1 [Compound 86]
- IC50: 500 to 2000 nM

Compound: N#Cc1cc2cc(CN3CCC(Nc4ncnc5sc(CC(F)(F)F)cc45)CC3)ccc2n1CC(O)(CO)CN1CCOCC1 (stereo not shown) [Compound 333]
- IC50: < 100 nM

Compound: NCc1nnc(N2CCN(c3ncnc4sc(CC(F)(F)F)cc34)CC2)s1 [Compound 4]
- IC50: 100 to 500 nM

Compound: Cc1c(CN2CCC(Nc3ncnc4sc(CC(F)(F)F)cc34)CC2)ccc2c1cc(C#N)n2CCc1cccnc1 [Compound 328]
- IC50: < 100 nM

Compound: N#Cc1cc2c(C(F)F)c(CN3CCC(Nc4ncnc5sc(CC(F)(F)F)cc45)CC3)ccc2[nH]1 [Compound 305]
- IC50: < 100 nM

Compound: Cc1c(CN2CCC(Nc3ncnc4sc(CC(F)(F)F)cc34)CC2)ccc2c1cc(C#N)n2CCN1CCN(CC(N)=O)CC1 [Compound 364]
- IC50: < 100 nM

Compound: O[C@@H]1CN(Cc2ccccc2)CC[C@H]1Nc1ncnc2sc(CC(F)(F)F)cc12 (relative stereo) [Compound 165]
- IC50: 100 to 500 nM

Compound: N#Cc1cc2cc(CN3CCC(Nc4ncnc5sc(CC(F)(F)F)cc45)CC3)ccc2n1CO [Compound 183]
- IC50: < 100 nM

Compound: N#Cc1cc2c(F)c(CN3CCC(Nc4ncnc5sc(CC(F)(F)F)cc45)CC3)ccc2[nH]1 [Compound 184]
- IC50: < 100 nM

Compound: N#Cc1cc2cc(CN3CCC(Nc4ncnc5sc(CC(F)(F)F)cc45)CC3)ccc2n1CCCC(F)(F)F [Compound 223]
- IC50: < 100 nM

Compound: N#Cc1cc2cc(CN3CCC(Nc4c(COCCCC5CCCC5)cnc5sc(CC(F)(F)F)cc45)CC3)ccc2[nH]1 [Compound 419]
- IC50: 500 to 2000 nM

Compound: COCCOCC(O)(CO)Cn1c(C#N)cc2cc(CN3CCC(Nc4ncnc5sc(CC(F)(F)F)cc45)CC3)ccc21 (stereo not shown) [Compound 314]
- IC50: < 100 nM

Compound: CCS(=O)(=O)Nc1ccc(CC(=O)N2CCN(c3ncnc4sc(CC(F)(F)F)cc34)CC2)cc1 [Compound 49]
- IC50: < 100 nM

Compound: Nc1cccc(CN2CCC(Nc3ncnc4sc(CC(F)(F)F)cc34)CC2)c1 [Compound 157]
- IC50: 500 to 2000 nM

Compound: FC(F)(F)Cc1cc2c(N[C@@H]3[C@@H]4CC[C@H]3CN(Cc3ccccc3)C4)ncnc2s1 [Compound 135]
- IC50: 100 to 500 nM

Compound: Cc1c(CN2CC[C@@H](Nc3ncnc4sc(CC(F)(F)F)cc34)[C@H](NCCc3ccccc3)C2)ccc2c1cc(C#N)n2CC(N)=O [Compound 288]
- IC50: < 100 nM

Compound: N#Cc1cc2cc(CN3CCC(Nc4ncnc5sc(CC(F)(F)F)cc45)CC3)cc(F)c2n1CC(N)=O [Compound 246]
- IC50: 100 to 500 nM

Compound: Cc1nn[nH]c1Cn1c(C#N)cc2c(C)c(CN3CCC(Nc4ncnc5sc(CC(F)(F)F)cc45)CC3)ccc21 [Compound 327]
- IC50: < 100 nM

Compound: Cn1cc(S(=O)(=O)Nc2ccc(CC(=O)N3CCN(c4ncnc5sc(CC(F)(F)F)cc45)CC3)cc2)cn1 [Compound 83]
- IC50: 100 to 500 nM

Compound: N#Cc1cc2cc(CN3CCC(Nc4ncnc5sc(CC(F)(F)F)cc45)CC3)ccc2n1N [Compound 230]
- IC50: 100 to 500 nM

Compound: CCOc1cc2[nH]c(C#N)cc2cc1CN1CCC(Nc2ncnc3sc(CC(F)(F)F)cc23)CC1 [Compound 215]
- IC50: < 100 nM

Compound: N#Cc1cc2cc(CN3CCC(Nc4ncnc5sc(CC(F)(F)F)cc45)CC3)ccc2n1Cc1cscn1 [Compound 200]
- IC50: < 100 nM

Compound: NC(=O)c1cc2cc(CN3CCC(Nc4ncnc5sc(CC(F)(F)F)cc45)CC3)ccc2[nH]1 [Compound 232]
- IC50: 100 to 500 nM

Compound: Cc1c(CN2CCC(Nc3ncnc4sc(CC(F)(F)F)cc34)CC2)ccc2c1cc(C#N)n2Cc1cnn(C)c1 [Compound 379]
- IC50: < 100 nM

Compound: FC(F)(F)Cc1cc2c(NCC3CCN(Cc4ccc(C(F)(F)F)cc4)CC3)ncnc2s1 [Compound 276]
- IC50: 500 to 2000 nM

Compound: COCCOCC(O)(CO)Cn1c(C#N)cc2c(C)c(CN3CCC(Nc4ncnc5sc(CC(F)(F)F)cc45)CC3)ccc21 (stereo not shown) [Compound 315]
- IC50: < 100 nM

Compound: COCC(O)Cn1c(C#N)cc2cc(CN3CCC(Nc4ncnc5sc(CC(F)(F)F)cc45)CC3)ccc21 (stereo not shown) [Compound 237]
- IC50: 100 to 500 nM

Compound: Cc1c(CN2CCC(Nc3ncnc4sc(CC(F)(F)F)cc34)CC2)ccc2c1cc(C#N)n2CCN1CCN(C(=O)CCC(F)(F)F)CC1 [Compound 342]
- IC50: < 100 nM

Compound: CNn1c(C#N)cc2cc(CN3CCC(Nc4ncnc5sc(CC(F)(F)F)cc45)CC3)ccc21 [Compound 231]
- IC50: 100 to 500 nM

Compound: N#Cc1cc2cc(CN3CCC(Nc4ncnc5sc(CC(F)(F)F)cc45)CC3)ccc2n1C(F)C(N)=O (stereo not shown) [Compound 220]
- IC50: < 100 nM

Compound: Cc1noc(C)c1Cn1c(C#N)cc2cc(CN3CCC(Nc4ncnc5sc(CC(F)(F)F)cc45)CC3)ccc21 [Compound 241]
- IC50: 100 to 500 nM

Compound: FC(F)(F)Cc1cc2c(NC3CCN(Cc4ccc(CN5CCCCC5)cc4)CC3)ncnc2s1 [Compound 116]
- IC50: 100 to 500 nM

Compound: CCCCS(=O)(=O)Nc1ccc(CC(=O)N2CCN(c3ncnc4sc(CC(F)(F)F)cc34)CC2)cc1 [Compound 54]
- IC50: < 100 nM

Compound: N#Cc1cc2c(CCO)c(CN3CCC(Nc4ncnc5sc(CC(F)(F)F)cc45)CC3)ccc2[nH]1 [Compound 296]
- IC50: < 100 nM

Compound: FC(F)Oc1ccc(CN2CCC(Nc3ncnc4sc(CC(F)(F)F)cc34)CC2)cc1 [Compound 141]
- IC50: 500 to 2000 nM
